Five compounds from patent publication US20140051815A1, “ORGANIC SULFONIC ACID COMPOUND, DOPANT HAVING SAME, AND CONDUCTIVE POLYMER COMPLEX HAVING THE DOPANT” (Ajou University Industry-Academic Cooperation Foundation, priority 2011, published 2014) can be followed below.

Series [1] in a line: Acidity / pH of doping solution, titration with 0.1 N KOH. In kind it is physicochemical. An excerpt:
In order to confirm a doping function of the dopants of Examples, pH of a doping solution was checked by using a 0.1 N KOH solution. […] Therefore, a function as a dopant could be confirmed.

Series [2] is described as follows: Solubility in various solvents. The arrangement: key: +++: dissolved well; ++: almost dissolved, but not completely dissolved and somewhat precipitated; +: opaquely dispersed; −: not dissolved but precipitated. Format: physicochemical. The method, then: Solubility properties of polyaniline ES in various organic solvents using the dopants of Examples were compared and checked in the same experimental conditions. […] After a basket mixing process, transmittances were measured and an average particle size was measured by using a particle size analyzer, and measurement results are as shown in Table 5.

Regarding `O=S(=O)(O)CCCOc1ccc(O)cc1` [Dopant II], the “Titration (Acidity) 0.1N KOH; converted into sulfonic acid” value in series [1] was found to be 85%. Moreover, in series [2], the “Solubility in BuO—EtOH” value is given as “+++”, the “Solubility in CHCl3” value is “−”, the “Solubility in H2O” value is on record as “+++” and the “Solubility in MEK” value is reported as “+”. Also, in series [2], the “Solubility in MeOH” value is reported as “+++”, the “Solubility in NMP” value is listed as “+++”, the “Solubility in isopropyl alcohol” value is listed as “++” and the Solubility in m-cresol result was “++”. Further, in series [2], the Solubility in toluene entry is “−”.
`O=S(=O)(O)CCCOc1ccc(-c2ccccc2)cc1` [Dopant IV]: in series [2], the “Solubility in BuO—EtOH” value is given as “+”, the “Solubility in CHCl3” value is on record as “−”, the “Solubility in H2O” value is given as “+++” and the “Solubility in MEK” value is on record as “+”. Further, in series [2], the “Solubility in MeOH” value is reported as “+++”, the “Solubility in NMP” value is reported as “+++”, the “Solubility in isopropyl alcohol” value is “+” and the Solubility in m-cresol entry is recorded as “+++”. The Solubility in toluene result in series [2] is reported as “−”.
Take `Cc1cccc(OCCCS(=O)(=O)O)c1` [Dopant I]: the “Titration (Acidity) 0.1N KOH; converted into sulfonic acid” value in series [1] stood at 86%. Moreover, in series [2], the “Solubility in BuO—EtOH” value is given as “++”, the “Solubility in CHCl3” value is recorded as “−”, the “Solubility in H2O” value was “+++” and the “Solubility in MEK” value is on record as “+”. Also, in series [2], the “Solubility in MeOH” value is listed as “+++”, the “Solubility in NMP” value was “++”, the “Solubility in isopropyl alcohol” value is reported as “+++” and the Solubility in m-cresol result is “++”. The Solubility in toluene result in series [2] is reported as “−”.
Turning to `Cc1cc(OCCCS(=O)(=O)O)ccc1O` [Dopant VI], in series [2], the “Solubility in BuO—EtOH” value is recorded as “+++”, the “Solubility in CHCl3” value was “−”, the “Solubility in H2O” value is recorded as “+++” and the “Solubility in MEK” value is “+”. Besides, in series [2], the “Solubility in MeOH” value is “+++”, the “Solubility in NMP” value was “+++”, the “Solubility in isopropyl alcohol” value was “+++” and the Solubility in m-cresol result is “++”. For the same compound, in series [2], the Solubility in toluene result is reported as “−”.
Consider `O=S(=O)(O)CCCOc1ccc(OCc2ccccc2)cc1` [Dopant V], for which, in series [2], the “Solubility in BuO—EtOH” value is listed as “+++”, the “Solubility in CHCl3” value is on record as “−”, the “Solubility in H2O” value is reported as “+++” and the “Solubility in MEK” value is “++”. In series [2], the “Solubility in MeOH” value is reported as “+++”, the “Solubility in NMP” value is recorded as “+++”, the “Solubility in isopropyl alcohol” value was “++” and the Solubility in m-cresol result is recorded as “++”. Also, the Solubility in toluene entry in series [2] is recorded as “−”.
